Measured values published in article PMC13206195, “Low‐dose cannabidiol increases plasma concentrations of amitriptyline: A clinical drug–drug interaction study” (British Journal of Clinical Pharmacology, 2025).
Read-outs that look alike come from different tables or passages of the source.

Columns and labels:
[1] = cited from earlier work; for mean (SD) AUC: previous trial
[2] = Plasma pharmacokinetics (non-compartmental analysis) in open-label, fixed-sequence, 2-way crossover study in healthy participants; details: for AUClast, Geometric mean / AUClast, Mean / AUClast, Median / Clast, Geometric mean / Clast, Mean / Clast, Median / Cmax, Geometric mean / Cmax, Mean / Cmax, Median / tlag, Median / tmax, Median / AUC(0-t) / Cmax: fasted, plasma; for AUC(0-t) / Cmax: po; for AUC(0-t): AUClast
Procedure: (§1) This study was an open‐label, fixed sequence, 2‐way crossover study in 13 healthy participants. On Day 1, 25 mg amitriptyline and 50 mg tramadol were orally administered concurrently, followed by a wash‐out period of at least 7 days. On Day 8, 30 mg of oral CBD oil was administered 1 h prior to amitriptyline and tramadol. On Days 1 and 8, participants presented to the clinical research unit in the morning and were discharged in the evening, briefly returning in the morning of Days 2 and 9 for pharmacokinetic sampling.
The cannabidiol formulation used in this study was Clinican®, an almond oil‐based formulation containing 10% cannabidiol and manufactured by Clinical Cannabis Care (Breukelen, the Netherlands) and administered orally with 240 mL of water following an overnight fast. Single doses of 30 mg CBD were administered. […] Furthermore, we estimated that the 30 mg CBD dose is at the upper end of the range of CBD intake of patients who use CBD‐rich varieties of medicinal cannabis (or formulations containing THC and CBD, like Sativex®) for treatment of neuropathic pain symptoms,[23] and as well as an approximately median dose for OTC CBD users. Cannabidiol was administered one hour prior to amitriptyline and tramadol (during visit 2 only) to offset the slower absorption expected from an oil‐based cannabinoid formulation, compared to the victim drugs.
Generic oral formulations of tramadol (50 mg tramadol hydrochloride capsule) and amitriptyline (25 mg hydrochloride tablet) were used in this study. These doses were at the low end of the therapeutic range, allowing for a safety margin for possible increases in plasma concentrations when co‐administered with CBD. Tramadol and amitriptyline were not known to induce or inhibit CYP‐enzymes in general, and no specific pharmacokinetic interactions between the two victim drugs were known to the investigators. […] However, this risk was deemed clinically irrelevant when low, single doses were administered to healthy volunteers. Based on these consideration regarding pharmacokinetics and safety, the two victim drugs were administered together in a cocktail design.
Sampling for pharmacokinetics was performed pre‐dose and at 1, 2, 3, 4, 5, 6, 8, 12 and 24 h following the administration of amitriptyline and tramadol. Approximately 4 mL blood was collected via an i.v. catheter placed in an antecubital vein in the arm in polypropylene K2EDTA tubes. Following collection, samples were immediately cooled on ice. Within 30 min of collection, plasma was separated by centrifugation at approximately 2000 g for 10 min and promptly transferred into amber glass vials and stored at […]. The samples were analysed by the iC42 Laboratory (Department of Anesthesiology, University of Colorado, Aurora, Colorado, USA). CBD and CBD metabolites were analysed using a validated assay that was previously published (CBD metabolite concentrations not reported in this manuscript).[33] Concentrations of amitriptyline, nortriptyline, tramadol and O‐desmethyltramadol were determined using a validated assay that was based on a previously published high‐performance liquid chromatography tandem mass spectrometry (HPLC‐MS/MS) method.[34] Details regarding the bioanalytical assays used to measure CBD, amitriptyline, nortriptyline, tramadol and O‐desmethyltramadol are located in the Supplementary Materials section.
R 3.6.1 for Windows (R Foundation for Statistical Computing/R development Core Team, Vienna, Austria, 2019), PKNCA package version 0.9.5, was used to calculate pharmacokinetic parameters. PK parameter calculations were based on actual sampling time.

clinical = assay: clinical
Procedure: as §1
To establish whether significant treatment effects could be detected, the PK parameters were compared with a mixed effects model analysis of variance (ANOVA) with treatment as a fixed factor and participants as a random factor on log‐transformed data. The general treatment effect and specific contrasts were reported with the estimated difference and the 95% confidence interval, the least square mean estimates and the p‐value. All calculations were performed using SAS for Windows V9.4 (SAS Institute, Inc., Cary, NC, USA).

[3] = cited from earlier work
[4] = Visit 1 (Day 1), no CBD, based on AUClast, corrected for molecular weight ratio, N=13
[5] = Visit 1 (Day 1): 25 mg amitriptyline + 50 mg tramadol oral, no CBD, N=13
[6] = Visit 2 (Day 8), 30 mg CBD 1 h prior, based on AUClast, corrected for molecular weight ratio, N=12
[7] = Visit 2 (Day 8): 30 mg CBD oral 1 h prior to 25 mg amitriptyline + 50 mg tramadol, N=12
[8] = Visit 1: without CBD, mixed effects model on log-transformed data
[9] = Visit 2 (with 30 mg CBD) vs Visit 1 (without CBD)
[10] = Visit 2: with 30 mg CBD, mixed effects model on log-transformed data
[11] = human, in vivo, Geometric mean, Visit 2 (Day 8): 30 mg CBD oral 1 h prior to 25 mg amitriptyline + 50 mg tramadol, N=12
[12] = human, in vivo, Mean, Visit 2 (Day 8): 30 mg CBD oral 1 h prior to 25 mg amitriptyline + 50 mg tramadol, N=12
[13] = human, in vivo, Median, Visit 2 (Day 8): 30 mg CBD oral 1 h prior to 25 mg amitriptyline + 50 mg tramadol, N=12

## CNCCC=C1c2ccccc2CCc2ccccc21 [Nortriptyline]
[1]
  terminal half‐life: ~ 26 h
[2]; human, in vivo
  MPR (metabolite to parent ratio), Geometric mean: 0.57
  MPR (metabolite to parent ratio), Mean: 0.62
  MPR (metabolite to parent ratio), Median: 0.60
clinical; human, in vivo
  AUC(0-t): 75.3 ng·h/mL
  Clast, back transformed LSM Visit 1: 3.30
  Cmax: 4.36 ng/mL
clinical; human, in vivo, 30 mg
  AUC(0-t): 79.5 ng·h/mL
  Cmax: 4.51 ng/mL

## CN(C)CCC=C1c2ccccc2CCc2ccccc21 [Amitriptyline]
[1]
  terminal half‐life: ~ 25 h
[1]; 28 participants dosed with 10 mg of amitriptyline
  mean (SD) AUC: 156 (87.8) ng*h/mL
[2]; human, in vivo
  baseline amitriptyline concentration: 0.85 ng/mL
clinical; human, in vivo
  AUC(0-t): 139 ng·h/mL
  Clast, back transformed LSM Visit 1: 3.40
  Cmax: 12.3 ng/mL
clinical; human, in vivo, 30 mg
  AUC(0-t): 156 ng·h/mL
  Cmax: 14.5 ng/mL

## CN(C)C[C@H]1CCCC[C@]1(O)c1cccc(O)c1 [O‐desmethyltramadol]
[1]
  terminal half‐life: ~ 7 h
[1]; 25 participants dosed with 100 mg tramadol
  mean (SD) AUC: 669 (181) ng*h/mL
[2]; [4]
  MPR (metabolite to parent ratio), Geometric mean: 0.37
  MPR (metabolite to parent ratio), Mean: 0.40
  MPR (metabolite to parent ratio), Median: 0.33
[2]; [5]
  AUClast, Geometric mean: 400.4 ng·h/mL
  AUClast, Mean: 412.0 ng·h/mL
  AUClast, Median: 388.6 ng·h/mL
  Clast, Geometric mean: 4.4 ng/mL
  Clast, Mean: 4.8 ng/mL
  Clast, Median: 4.1 ng/mL
  Cmax, Geometric mean: 35.0 ng/mL
  Cmax, Mean: 36.7 ng/mL
  Cmax, Median: 31.1 ng/mL
  tlag, Median: 0.0 h
  tmax, Median: 3.0 h
[2]; [6]
  MPR (metabolite to parent ratio), Geometric mean: 0.37
  MPR (metabolite to parent ratio), Mean: 0.39
  MPR (metabolite to parent ratio), Median: 0.32
[2]; [7]
  AUClast, Geometric mean: 399.5 ng·h/mL
  AUClast, Mean: 411.1 ng·h/mL
  AUClast, Median: 396.1 ng·h/mL
  Clast, Geometric mean: 4.0 ng/mL
  Clast, Mean: 4.4 ng/mL
  Clast, Median: 3.9 ng/mL
  Cmax, Geometric mean: 37.6 ng/mL
  Cmax, Mean: 39.5 ng/mL
  Cmax, Median: 33.6 ng/mL
  tlag, Median: 0.0 h
  tmax, Median: 2.5 h
clinical; Visit 1: without CBD, metabolite to parent ratio
  MPR, back transformed LSM Visit 1: 0.37
clinical; [8]
  AUClast, back transformed LSM Visit 1: 400.41
  Clast, back transformed LSM Visit 1: 4.43
clinical; Visit 1: without CBD, mixed effects model on log-transformed data, in ng/mL
  Cmax, back transformed LSM Visit 1: 34.99
clinical; [9]
  AUClast, Ratio of LSMs: 0.99
  Clast, Ratio of LSMs: 0.91
  Cmax, Ratio of LSMs: 1.05
  MPR, Ratio of LSMs: 0.95
clinical; Visit 2: with 30 mg CBD, metabolite to parent ratio
  MPR, back transformed LSM Visit 2: 0.36
clinical; [10]
  AUClast, back transformed LSM Visit 2: 396.86
  Clast, back transformed LSM Visit 2: 4.04
clinical; Visit 2: with 30 mg CBD, mixed effects model on log-transformed data, in ng/mL
  Cmax, back transformed LSM Visit 2: 36.84

## 11‐OH‐THC
[3]; 30 mg CBD administered 30 min before THC
  increase of mean AUC by 30 mg CBD: 71%

## C=C(C)[C@@H]1CCC(C)=C[C@H]1c1c(O)cc(CCCCC)cc1O [Cannabidiol]
[3]; previous study, 30 mg CBD tablet formulation after semi-standardized light breakfast
  mean±SD Cmax: 5.6 ± 4.6 ng/mL
[1]
  terminal half‐life: ~ 60 h
[2]; [7]
  Clast, Geometric mean: 1.0 ng/mL
  Clast, Mean: 1.1 ng/mL
  Clast, Median: 1.1 ng/mL
  tlag, Median: 0.0 h
  tmax, Median: 2.0 h
[2]; [11]
  AUC(0-t): 5.3 ng·h/mL
  Cmax: 2.9 ng/mL
[2]; [12]
  AUC(0-t): 6.9 ng·h/mL
  Cmax: 3.5 ng/mL
[2]; [13]
  AUC(0-t): 6.2 ng·h/mL
  Cmax: 3 ng/mL
